Reference: ChEMBL document CHEMBL1159228, “The 1994 Japan-U.S. Seminar on Bioorganic Marine Chemistry, Meeting Report” (J Nat Prod, 1995)
Values after ≈ are worked out from the molar mass of the structure shown. Values belong to the molecule of their own block, whether it stands above or below them.

Legend:
[1] = Inhibition of inosine-5'-monophosphate dehydrogenase
L1210 = experiment: Cytotoxicity against mouse L1210 cells; format: functional, cell-based
P388 [2] = experiment: In vivo cytotoxicity against mouse P388 cells relative to control; format: functional
B16 [3] = experiment: In vivo cytotoxicity against mouse B16 cells relative to control; format: functional
M5076 = experiment: In vivo cytotoxicity against mouse M5076 cells relative to control; format: functional
[4] = In vivo cytotoxicity against mouse LLC cells relative to control; format: functional, Lewis lung carcinoma
P388 [5] = experiment: In vivo cytotoxicity against mouse P388 cells at 80 ug/kg relative to control; format: functional
Colon 26 = experiment: In vivo cytotoxicity against mouse Colon 26 cells at 80 ug/kg relative to control; format: functional
[6] = In vivo cytotoxicity against mouse LLC cells at 40 ug/kg relative to control; format: functional, Lewis lung carcinoma
[7] = In vivo cytotoxicity against mouse EAC cells at 40 ug/kg relative to control; format: functional, Ehrlich
B16 [8] = experiment: In vivo cytotoxicity against mouse B16 cells at 40 ug/kg relative to control; format: functional
[9] = Molluscicidal activity against common snail; format: organism-based; conditions: cornu aspersum, in vivo; read-out: LD50 (the source's name)
[10] = Ichthyotoxicity against Carassius auratus; format: organism-based; conditions: in vivo
P388 [11] = experiment: Cytotoxicity against mouse P388 cells; format: functional, cell-based

Structure (SMILES): Oc1c(Oc2c(O)c(Br)c(Br)c(Br)c2Br)cc(Br)c(Br)c1Br
IC50 [1]: 1000 µM

Structure (SMILES): C/C=C\[C@H](C)[C@@H]1O[C@]1(C)[C@@H](O)[C@@H](C)C(=O)[C@@H](CO)[C@@H](O)CC(=O)CC
IC50 (L1210): 100 ng/mL (≈ 281 nM)

Structure (SMILES): COc1c(C)cc2c(c1O)[C@@H]1[C@@H]3[C@H]4SCC(N)C(=O)OC[C@@H](c5c(O)c(OC)c(C)c(OC(C)=O)c54)N3[C@@H](O)[C@H](C2)N1C (stereo partly specified)
T/C (P388 [2]): 213% | T/C (B16 [3]): 241% | T/C (M5076): 210% | T/C [4]: 0%

Structure (SMILES): COc1c(C)cc2c(c1O)[C@@H]1[C@@H]3[C@H]4SCC(=O)C(=O)OC[C@@H](c5c(O)c(OC)c(C)c(OC(C)=O)c54)N3[C@@H](O)[C@H](C2)N1C
T/C (P388 [2]): 213% | T/C (B16 [3]): 241% | T/C (M5076): 210% | T/C [4]: 0%

IC50 [1]: 1000 µM
Structure (SMILES): C#CC(O)/C=C/CCCCCCCCC/C=C\CCCCCCCCCCCC/C=C\CC#CC(=O)O (stereo unspecified)

Structure (SMILES): C=C1C(O)CC(=O)C(C)/C=C(\C)C[C@@H](O)[C@]2(O)O[C@H](CC[C@H]2O)CC(O)CCC(O)C(CCCC)OC(=O)C(C)C(O)C2OC12 (stereo partly specified) [AMPHIDINOLIDE N]
IC50 (L1210): 0.05 ng/mL (≈ 0.0778 nM)

Structure (SMILES): COCC(C(=O)O[C@@H]1C/C=C/C=C/C(=O)O[C@H]([C@@H](C)[C@@H](O)[C@@H](C)CC[C@@H](OC(=O)C(C)N(C)C)[C@H](C)[C@H](OC(C)=O)[C@H](C)/C=C/N(C)C=O)C/C=C/[C@H](OC)C[C@H](C)C/C=C(\C)[C@@H](OC)CC[C@@H](C)[C@@H](O)[C@@H]1C)N(C)C (stereo partly specified) [APLYRONINE A]
T/C (P388 [5]): 545% | T/C (Colon 26): 255% | T/C [6]: 556% | T/C [7]: 398% | T/C (B16 [8]): 201%

Structure (SMILES): CO/C(=C\C(=O)N(C)[C@@H](Cc1ccccc1)c1nccs1)C[C@H](C)C(Cl)(Cl)Cl [BARBARAMIDE A]
LC50 [9]: < 100000 ng/mL

IC50 [1]: 1000 µM
Structure (SMILES): O=C1NCCc2cc(Br)c(O)c(c2)Oc2ccc(cc2Br)[C@H](O)CNC(=O)/C(=N/O)Cc2cc(Br)c(O)c(c2)Oc2c(Br)cc(cc2Br)C/C1=N\O [BASTADIN 8]

IC50 [1]: 1000 µM
Structure (SMILES): CC1=C(O)/C(=C/C(C)CCCC(C)/C=C/C=C(\C)CCCc2ccoc2)OC1=O (stereo unspecified) [FASCICULATIN]

Structure (SMILES): C=C(CCNC(=O)CC/C=C/C[C@H](CCCCCCC)OC)[C@@]12O[C@@H]1CC=C(C)C2=O [MALYNGAMIDE H]
LC50 [10]: 25000 ng/mL (≈ 57900 nM)

Structure (SMILES): C[C@@H]1[C@@]2(CC[C@](C)(O)CO2)O[C@H]2C=C3[C@@H]4[C@@H](O)C[C@H]5Cc6nc7c(nc6C[C@]5(C)[C@H]4C[C@@H](O)[C@]3(C)[C@]21O)C[C@@H]1CC[C@@H]2[C@H](CC(=O)[C@]23C[C@@H]2O[C@@]4(CCC(C)(C)O4)[C@@H](C)[C@@H]2[C@]3(C)O)[C@@]1(C)C7 [RITTERAZINE A]
IC50 (P388 [11]): 0.018 ng/mL (≈ 0.0197 nM)

Structure (SMILES): COc1cc2c(cc1O)CCN[C@]21CS[C@@H]2c3c(OC(C)=O)c(C)c4c(c3[C@H](COC1=O)N1[C@@H]2[C@H]2c3c(cc(C)c(OC)c3O)C[C@@H]([C@@H]1O)N2C)OCO4 [TRABECTEDIN]
T/C (P388 [2]): 213% | T/C (B16 [3]): 241% | T/C (M5076): 210% | T/C [4]: 0%
